Measurements from publication PMC5520492, “Inhibition of DNA2 nuclease as a therapeutic strategy targeting replication stress in cancer cells” (Oncogenesis, 2017).
“Also recorded” adds a separate entry of the source.

Key:
[1] = biological target: T1, hDNA2 (Homo sapiens, UniProt P51530); test: ATPase activity of hDNA2 (TLC); format: biochemical; details: inhibitor 10 µM, 100 nM hDNA2
T1 construct: made in house
T1 sequence (P51530 1-1060): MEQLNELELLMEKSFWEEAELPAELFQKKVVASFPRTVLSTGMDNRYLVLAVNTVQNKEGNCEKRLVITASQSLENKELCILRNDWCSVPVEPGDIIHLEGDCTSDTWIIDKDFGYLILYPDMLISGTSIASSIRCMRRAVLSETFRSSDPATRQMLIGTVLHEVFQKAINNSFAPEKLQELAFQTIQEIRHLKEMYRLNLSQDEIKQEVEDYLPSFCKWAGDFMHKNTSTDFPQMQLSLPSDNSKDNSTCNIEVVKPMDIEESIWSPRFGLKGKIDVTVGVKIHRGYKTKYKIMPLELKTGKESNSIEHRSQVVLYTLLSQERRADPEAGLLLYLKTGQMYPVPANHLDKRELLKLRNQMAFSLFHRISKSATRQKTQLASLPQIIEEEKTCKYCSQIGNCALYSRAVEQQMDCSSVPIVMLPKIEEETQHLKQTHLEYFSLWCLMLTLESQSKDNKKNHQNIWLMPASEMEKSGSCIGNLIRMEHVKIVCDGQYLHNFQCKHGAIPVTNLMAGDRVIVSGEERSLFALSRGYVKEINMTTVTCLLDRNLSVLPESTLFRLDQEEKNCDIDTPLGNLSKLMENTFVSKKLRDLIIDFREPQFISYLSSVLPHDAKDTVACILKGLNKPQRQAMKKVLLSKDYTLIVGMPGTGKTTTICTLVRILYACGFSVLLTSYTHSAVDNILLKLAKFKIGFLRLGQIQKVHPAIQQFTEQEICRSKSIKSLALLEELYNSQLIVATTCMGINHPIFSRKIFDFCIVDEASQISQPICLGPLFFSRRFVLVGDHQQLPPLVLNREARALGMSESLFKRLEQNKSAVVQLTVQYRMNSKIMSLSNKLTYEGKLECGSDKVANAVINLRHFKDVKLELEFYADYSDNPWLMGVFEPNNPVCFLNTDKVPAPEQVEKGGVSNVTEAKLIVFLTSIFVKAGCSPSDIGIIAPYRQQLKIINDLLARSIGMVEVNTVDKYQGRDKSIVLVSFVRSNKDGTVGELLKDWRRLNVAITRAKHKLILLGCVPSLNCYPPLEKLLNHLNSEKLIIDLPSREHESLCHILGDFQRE
Procedure: (§1) Figure S2. […] (a) Analysis of 5’ flap processing by hDNA2 in presence of the compounds at the indicated concentration. DNA2 (2.5 nM) was incubated with the Y DNA substrate (5 nM ends) and the indicated concentration of inhibitor. (b) Plots showing quantitation of the experiments shown in a. Plotted are the average data from three independent experiments with the error bars representing one standard deviation. (c) Analysis of dsDNA unwinding by BLM. BLM (4, 8 and 16 nM), RPA (100 nM) and internally radiolabelled dsDNA (0.5 nM ends) was incubated for 20 min at 37^ºC in presence of either DMSO or NSC-105808 (10 µM) and the products were resolved on a 1% agarose gel. (d) Plots showing quantitation of the experiments shown in c. Plotted are the average data from three independent experiments with the error bars representing one standard deviation. (e) Analysis of the degradation of a 2 kb internally labeled dsDNA (0.5 nM ends) by EXO1 (5 nM) in presence of NSC-105808 (10 µM). (f) Plot showing quantitation of the experiment in e. […] 100 nM hDNA2 was incubated with γ^32P-ATP in the presence of oligonucleotide ssDNA (200 nM) for 20 minutes at 37^ºC in presence of either DMSO or inhibitor (10 µM) and the products were resolved on a TLC plate. (h) Analysis of hDNA2 binding to DNA. […]

[2] = test system: Hs578T and BT549 versus MCF10A cells; test: MTT proliferation, breast cell lines; format: cell-based, human; details: 48-h treatment
Procedure: Figure 5 Oncogene induction enhances sensitivity of cancer cells to NSC-105808. (a-e) Graphs showing proliferation of indicated cell lines in response to a 48-h treatment with the indicated concentrations of NSC-105808. Proliferation relative to cells treated with vehicle alone was determined by the 3-(4,5-dimethylthiazol-2-yl)-2,5-diphenyltetrazolium bromide (MTT) assay. Each value represents the mean±s.e.m. from three independent experiments. (a) Proliferation of control pancreatic epithelial cells DT-PD59 and transformed pancreatic cancer cells AsPC-1 and PANC-1. (b) Proliferation of normal breast epithelial cells MCF10A and breast cancer cells Hs578T and BT549. (c) Proliferation of MCF10A cells with or without H-Ras expression. H-Ras was induced with doxycycline (2 μg/ml). […]
Cell proliferation was measured by 3-(4,5-dimethylthiazol-2-yl)-2,5-diphenyltetrazolium bromide (Sigma) reduction (Supplementary Materials and Methods).
To determine the cell proliferation rate, 1000 cells/well were seeded in a 96-well plate in a total volume of 100 µl in triplicate in each experiment. […] Plates were read at 490 nm and 650 nm (background) in a
microplate reader (Molecular Devices). After the subtraction of background, cell viability was calculated as fold change relative to control cells.

[3] = test system: DNA2 protein level; test: Western blot of cellular DNA2 protein level; format: cell-based, human; details: U2OS, PANC-1, Hs578T; up to 12 hrs
Procedure: Figure S8. Analysis of DNA2 protein levels in cells treated with NSC-105808. U2OS (a), PANC-1 (b) and Hs578T (c) cells were treated with the indicated concentrations of NSC-105808 for 4 hours (right) or with a single concentration of NSC-105808 (0.3 µM for U2OS and Hs578T cells; 0.6 µM for PANC-1 cells) for 0, 4, 8, or 12 hrs (left). The results were quantified and are shown below each panel, with the error bars representing the mean ± SD of three independent experiments.

[4] = biological target: T2, Bloom syndrome (BLM) (Homo sapiens, UniProt P54132); test: dsDNA unwinding by BLM; format: biochemical; details: 10 µM
T2 construct: made in house
Procedure: as §1

T2 sequence (P54132 whole entry): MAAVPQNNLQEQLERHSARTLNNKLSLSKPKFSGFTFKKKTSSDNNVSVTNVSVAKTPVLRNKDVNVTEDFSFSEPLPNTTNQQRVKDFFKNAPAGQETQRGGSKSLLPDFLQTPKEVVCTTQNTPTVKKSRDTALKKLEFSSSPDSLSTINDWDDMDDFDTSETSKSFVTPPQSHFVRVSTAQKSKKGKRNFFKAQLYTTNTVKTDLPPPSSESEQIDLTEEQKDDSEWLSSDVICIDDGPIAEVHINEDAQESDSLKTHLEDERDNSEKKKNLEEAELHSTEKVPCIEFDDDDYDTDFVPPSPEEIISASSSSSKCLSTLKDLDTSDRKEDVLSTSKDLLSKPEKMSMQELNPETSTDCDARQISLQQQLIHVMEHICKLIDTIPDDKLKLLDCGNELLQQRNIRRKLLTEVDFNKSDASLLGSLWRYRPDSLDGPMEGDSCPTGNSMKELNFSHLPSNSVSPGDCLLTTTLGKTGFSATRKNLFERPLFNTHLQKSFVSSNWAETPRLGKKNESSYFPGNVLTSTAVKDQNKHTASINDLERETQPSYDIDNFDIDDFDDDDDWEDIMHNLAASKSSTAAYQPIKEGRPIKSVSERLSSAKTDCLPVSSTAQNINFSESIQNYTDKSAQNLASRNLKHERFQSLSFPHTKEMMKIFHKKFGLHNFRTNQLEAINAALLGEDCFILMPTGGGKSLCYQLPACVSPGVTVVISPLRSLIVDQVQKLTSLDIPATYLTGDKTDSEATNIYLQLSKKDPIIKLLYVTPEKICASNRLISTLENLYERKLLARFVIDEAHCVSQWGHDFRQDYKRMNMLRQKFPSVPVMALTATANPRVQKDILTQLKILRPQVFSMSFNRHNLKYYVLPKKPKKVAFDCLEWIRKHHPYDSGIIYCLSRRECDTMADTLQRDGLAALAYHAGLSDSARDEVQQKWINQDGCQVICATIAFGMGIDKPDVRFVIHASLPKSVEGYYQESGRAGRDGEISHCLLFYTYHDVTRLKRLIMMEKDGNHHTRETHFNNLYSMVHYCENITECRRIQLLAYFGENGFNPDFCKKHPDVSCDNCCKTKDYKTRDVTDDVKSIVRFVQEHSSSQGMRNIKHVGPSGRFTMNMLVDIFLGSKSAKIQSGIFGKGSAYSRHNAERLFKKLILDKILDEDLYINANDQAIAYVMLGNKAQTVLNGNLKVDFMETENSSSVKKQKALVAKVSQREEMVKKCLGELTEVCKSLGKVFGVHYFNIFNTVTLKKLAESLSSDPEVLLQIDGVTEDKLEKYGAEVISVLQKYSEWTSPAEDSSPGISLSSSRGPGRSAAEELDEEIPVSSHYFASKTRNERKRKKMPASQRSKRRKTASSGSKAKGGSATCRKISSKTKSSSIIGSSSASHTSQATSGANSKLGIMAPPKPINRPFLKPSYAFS

SMILES | Effect on ATPase activity of DNA2 [1] | Sensitivity of transformed breast cancer cells compared with MCF10A [2] | Impact on cellular level of DNA2 protein [3] | Effect on ability of Bloom syndrome to unwind DNA [4]
O=C1C(=O)c2cc([N+](=O)[O-])ccc2-c2ccccc21 [NSC-5195242, 2-nitrophenanthrene-9,10-dione] | do not affect |  |  | 
NC1=C(Br)C(=O)c2ncccc2C1=O [NSC-105808, 6-amino-7-bromoquinoline-5,8-dione] | do not affect; also recorded: no effect | more sensitive | No statistically significant difference; also recorded: no impact | no effect
